The values that follow come from article PMC5089653, “Isoxazole‐Derived Amino Acids are Bromodomain‐Binding Acetyl‐Lysine Mimics: Incorporation into Histone H4 Peptides and Histone H3” (Angewandte Chemie (International Ed. in English), 2016).

The target in experiment [1] is T1, BRD4(1) (Homo sapiens, UniProt O60885).
T1 construct: the phylogenetically diverse BAZ2A, BRD4(1), and BRD9 bromodomains; His tag (pNIC28-Bsa4 vector; purified on HisTrap) (N); made in house; host or cells: E. coli BL21 (DE3) Gold
The experiment can be described thus: AlphaScreen assay inhibiting the interaction of BRD4(1) with biotinylated H4(KAc)4. The following applies: for Percentage inhibition of bromodomain-KAc recognition, BRD4(1), H4(KAc)4 / inhibition at 0.004 µM: AlphaScreen, average of triplicate, BRD4(1) 10 nM, biotin-H4(KAc)4 4 nM. In kind it is binding. The source says: (§1) Supporting Table S1: Percentage inhibition of bromodomain-KAc recognition by isoxazole-containing amino acids.
(§2) Inhibitory values of unprotected amino acids given as average percentage inhibition (buffer […]
(§3) measurements in triplicate (AlphaScreen). n.d. value not determined. Inhibition values highlighted as a heatmap from green (low inhibition) to red (high inhibition). […]
(§4) Protein expression and purification: bromodomain-containing constructs in pNIC28-Bsa4 vector backbones were transformed into E. coli BL21 (DE3) Gold cells. Flasks containing […]
(§5) starter culture. Flasks (2000 mL PYREX® narrow-mouth graduated Erlenmeyer flasks or plastic baffled flasks) were incubated at 37 °C and 180 rpm in an Innova® 44 shaker (New Brunswick Scientific). When OD600 reached 0.8-1.0, the temperature was lowered to 18 °C and IPTG was added to a final concentration of 0.25 mM to induce protein expression.
Cultures were incubated at 18 °C overnight, after which time cultures were harvested by centrifugation in a JA10 rotor in an Avanti J25 centrifuge (Beckman CoulterTM) at 8000 rpm for 15 min at 4 °C. The resulting pellet was weighed and stored in a sealable plastic bag at - 80 °C. Proteins were purified with a 3 mL HisTrapTM chromatography column (GE Healthcare), and Superdex 75 XK 16/600 gel filtration column (GE Healthcare) using standard
Background: Bead proximity is the source of the signal in Alpha formats.

For experiment [2], the target named is T2, BRD9 (Homo sapiens, UniProt Q9H8M2).
T2 construct: the phylogenetically diverse BAZ2A, BRD4(1), and BRD9 bromodomains; Structural Genomics Consortium (Oxford)
T2 sequence (Q9H8M2 136-240 limits assumed): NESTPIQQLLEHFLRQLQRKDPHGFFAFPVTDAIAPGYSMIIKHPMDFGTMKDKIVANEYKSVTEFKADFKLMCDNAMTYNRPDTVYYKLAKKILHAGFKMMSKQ
The experiment in a line: AlphaScreen single shot screening, BRD9 with biotin-H2A(KAc)3 peptide. In kind it is binding. The following applies: amino acid 50 μM as headed in Table 1 (supplement: 25 µM), average of triplicate, BRD9 40 nM, biotin-H2A 1-21 KAc9KAc13KAc15 25 nM, read-out: Percentage inhibition of bromodomain-KAc recognition, BRD9, H2(KAc)3.

Experiment [3] has as its target T3, BAZ2A (Homo sapiens, UniProt Q9UIF9).
T3 construct: the phylogenetically diverse BAZ2A, BRD4(1), and BRD9 bromodomains; Structural Genomics Consortium (Oxford)
T3 sequence (Q9UIF9 1793-1897 limits assumed): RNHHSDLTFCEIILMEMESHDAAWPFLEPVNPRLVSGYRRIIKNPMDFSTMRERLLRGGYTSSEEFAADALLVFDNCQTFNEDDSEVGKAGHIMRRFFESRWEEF
The experiment in a line: AlphaScreen single shot screening, BAZ2A with biotin-H3K14Ac peptide. In kind it is binding. The following applies: amino acid 50 μM as headed in Table 1 (supplement: 25 µM), average of triplicate, BAZ2A 25 nM, biotin-H3 5-24 KAc14 50 nM, read-out: Percentage inhibition of bromodomain-KAc recognition, BAZ2A, H3K14Ac.

Experiment [4] concerns the target T3, BAZ2A. The description is as above. In kind it is binding. To be noted: average of triplicate, BAZ2A 25 nM, biotin-H3 5-24 KAc14 50 nM, read-out: Percentage inhibition of bromodomain-KAc recognition, BAZ2A, H3K14Ac; for inhibition at 250 µM: amino acid 250 μM, <0.5% DMSO.
From the text: as §1, §2, §3, §4, §5
(§6) Cultures were incubated at 18 °C overnight, after which time cultures were harvested by centrifugation in a JA10 rotor in an Avanti J25 centrifuge (Beckman CoulterTM) at 8000 rpm for 15 min at 4 °C. The resulting pellet was weighed and stored in a sealable plastic bag at - 80 °C. Proteins were purified with a 3 mL HisTrapTM chromatography column (GE […]
(§7) AlphaScreen assay: AlphaScreen buffer (25 mM HEPES, 100 mM NaCl, 0.05% w/v CHAPS, 0.1% w/v BSA; pH 7.6) was prepared fresh each day, filter sterilization through a 0.22 µm filter, and stored at 4 °C, with equilibration to room temperature before use. Single shot screening against BAZ2A and BRD9A was carried out by the Structural Genomics Consortium (Oxford) as described previously.[12] Biotinylated peptides employed and final assay […]
(§8) biotin-H35-24KAc14 50 nM. Amino acids were tested at 25 µM and 250 µM with <0.5% DMSO.

In experiment [5] the target is T2, BRD9. The experiment can be described thus: AlphaScreen single shot screening, BRD9 with biotin-H2A(KAc)3 peptide. In kind it is binding. To be noted: average of triplicate, BRD9 40 nM, biotin-H2A 1-21 KAc9KAc13KAc15 25 nM, read-out: Percentage inhibition of bromodomain-KAc recognition, BRD9, H2(KAc)3; for inhibition at 250 µM: amino acid 250 μM, <0.5% DMSO; for inhibition at 25 µM: amino acid 50 μM as headed in Table 1 (supplement: 25 µM).
From the text: as §1, §2, §3, §4, §5, §6, §7, §8

Experiment [6] deals with bromodomain of BRDT. The following applies: KAc mimics containing MTCTK; cited from earlier work. The source says:
Lysine acetylation is a prevalent post‐translational modification (PTM) which plays a fundamental role in regulating protein function.1, 2 Although acetylated lysine (KAc) residues are found throughout the cellular environment,3, 4, 5 it is the role of this PTM in chromatin function which has garnered most recent interest.6 KAc is viewed as one of the “marks” that comprises the epigenetic code,7, 8 and enzymes that write (histone acetyl transferases) and erase (histone deacetylases) this modification are well characterized.9 Neutralization of lysine's positive charge by acetylation weakens the ...

Setting [7] is: amino acid 250 μM, buffer blank 0%, 25% DMSO 100% inhibition.
[8] abbreviates: read-out: Percentage inhibition of bromodomain-KAc recognition, BRD4(1), H4(KAc)4, amino acid 50 μM.
The mark [9] stands for this setting: read-out: Percentage inhibition of bromodomain-KAc recognition, BRD4(1), H4(KAc)4, amino acid 250 μM, buffer blank 0%, 25% DMSO 100% inhibition.

Each structure is given as a SMILES string. Read-outs that look alike come from different tables or passages of the source.

With `CC(=O)NCCCC[C@H](N)C(=O)O` [KAc, reference compound], the “Percentage inhibition of bromodomain-KAc recognition, BRD4(1), H4(KAc)4” value (shortened to “Percentage inhibition”) in experiment [1] (amino acid 50 μM) is given as 4.6%.

Take `Cc1noc(C)c1-c1cc(O)cc(C(O)c2ccccc2)c1` (stereo not drawn) [compound 2, reference compound]: in experiment [1] (included on each plate of the amino acid screen as a positive control, in every case, concentration not given), the “inhibition by positive control” value came to 100%.

For `Cc1cc(CCC[C@H](N)C(=O)O)on1` [compound 3, (S)-2-Amino-5-(3-methylisoxazol-5-yl)pentanoic acid], the “Percentage inhibition” value in experiment [1] (amino acid 50 μM) was 2.3%; in experiment [1] (setting [7]), 16.4%.

Consider `Cc1cc(COC[C@H](N)C(=O)O)on1` [compound 4], for which the inhibition at 0.004 µM in experiment [1] (setting [8]) worked out at 0.6%; in experiment [1] (setting [9]), 10.3%.

Consider `Cc1cc(C(=O)NC[C@H](N)C(=O)O)on1` [compound 5, (S)-2-Amino-3-(3-methylisoxazole-5-carboxamido)propanoic acid], for which the “Percentage inhibition” value in experiment [1] (amino acid 50 μM) is on record as 2.5%; in experiment [1] (setting [7]), 31.2%. Besides, the inhibition at 50 µM in experiment [2] came out at 28.6%; in experiment [3] it was 58.1%. Further, the inhibition at 250 µM stood at 98.7% in experiment [4] and 73.6% in experiment [5].

Consider `CSC(=O)NCCSC[C@H](N)C(=O)O` [compound 7, methylthiocarbonylthialysine], for which, in experiment [6], the “interaction with the bromodomain of BRDT compared to KAc” value is recorded as “two‐ to fourfold less efficiently”.

`Cc1noc(C)c1-c1cccc(C[C@H](N)C(=O)O)c1` [compound 8]: the “Percentage inhibition” value in experiment [1] (setting [7]) is 76.3%. Moreover, in experiment [1] (setting [8]), the inhibition at 0.004 µM was found to be 18.3%. In addition, the inhibition at 0.004 µM in experiment [1] (setting [9]) is over 70%. Besides, in experiment [4], the inhibition at 250 µM was 45.3% and the inhibition is 5.8%. Moreover, in experiment [5], the inhibition at 25 µM is -7.7% and the inhibition at 250 µM was found to be 0.5%.

In the case of `Cc1noc(C)c1-c1ccc(C[C@H](N)C(=O)O)cc1` [compound 9], the inhibition at 0.004 µM in experiment [1] (setting [8]) turned out to be 22.7%. The inhibition at 0.004 µM in experiment [1] (setting [9]) is 45.8%. In experiment [4], the inhibition at 250 µM was found to be 28.1% and the inhibition amounted to 2.6%. For the same molecule, in experiment [5], the inhibition at 25 µM is -1.7% and the inhibition at 250 µM is 66.5%.

As to `Cc1noc(C)c1NC(=O)CC[C@H](N)C(=O)O` [compound 10, N5-(3,5-Dimethylisoxazol-4-yl)-L-glutamine], the inhibition at 0.004 µM in experiment [1] (setting [8]) was determined as 4.1%. Moreover, the inhibition at 0.004 µM in experiment [1] (setting [9]) worked out at 7.5%. In addition, in experiment [4], the inhibition at 250 µM worked out at 25.1% and the inhibition was 1.4%. Also, in experiment [5], the inhibition at 25 µM was -4.8% and the inhibition at 250 µM is -3.1%.

With `Cc1cc(CNC(=O)C[C@H](N)C(=O)O)on1` [compound 11], the inhibition at 0.004 µM in experiment [1] (setting [8]) worked out at 4.7%. Also, the inhibition at 0.004 µM in experiment [1] (setting [9]) came to 18.5%. In experiment [4], the inhibition at 250 µM was determined as 53.8% and the inhibition is 1.9%. Besides, in experiment [5], the inhibition at 25 µM was -8.1% and the inhibition at 250 µM was -0.1%.

In the case of `Cc1noc(C)c1NC(=O)C[C@H](N)C(=O)O` [compound 12], the inhibition at 0.004 µM in experiment [1] (setting [8]) was determined as 1.3%. The inhibition at 0.004 µM in experiment [1] (setting [9]) was 23.5%. Besides, in experiment [4], the inhibition at 250 µM stood at 66.9% and the inhibition was 10.5%. Besides, in experiment [5], the inhibition at 25 µM is -2.1% and the inhibition at 250 µM stood at 12.6%.

As for `Cc1cc(NC(=O)C[C@H](N)C(=O)O)no1` [compound 13], the values for the inhibition at 0.004 µM in experiment [1] (setting [8]) and in experiment [1] (setting [9]) were 0.9% and 26.3%, respectively. Besides, the inhibition at 250 µM was determined as 96.1% in experiment [4] and 47.9% in experiment [5]. Moreover, in experiment [4], the inhibition was 12.6%. Further, in experiment [5], the inhibition at 25 µM was -1%.

With `Cc1cc(NC(=O)C[C@H](N)C(=O)O)on1` [compound 14], in experiment [4], the inhibition at 250 µM was determined as 84.3% and the inhibition is 14.5%. Further, in experiment [5], the inhibition at 25 µM was found to be 1.4% and the inhibition at 250 µM turned out to be 14.6%.

What is called inhibition is the change of the read-out against control, counted positive when it falls.
